Measurements taken from paper doi:10.1101/2025.11.04.686469, “Discovery of Host-Directed Small Molecules with Broad Anti-Leishmanial Efficacy” (bioRxiv, 2025).

What was measured:
[1] = tested on: THP-1 macrophages; experiment: Effect of compounds on host cell viability (MTT); assay type: cell-based; settings: read-out: 24h LC50; THP1 macrophages, 24-hour incubation, MTT assay (Supplemental Table 2)
In short: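 Viability was read as MTT reduction: 2 h with 0.5 mg/mL, formazan dissolved in isopropanol, A560 with 670 nm background subtracted. The macrophages were PMA-differentiated THP-1 cells (150 nM, 72 h), treated 24 h at 1–50 μM or, for some compounds, 72 h at 1–300 μM.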

[2] = tested on: intracellular L. donovani amastigotes; experiment: Luminescent-based evaluation of intracellular anti-leishmanial activity in THP-1 macrophages; assay type: cell-based, Leishmania donovani; settings: intracellular Leishmania donovani in THP1 macrophages, luminescence assay (Supplemental Table 2); read-out: Lum IC50
In short: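 PMA-differentiated THP-1 macrophages (150 nM, 72 h) were infected 18 h with firefly luciferase-expressing L. donovani LV82 promastigotes, then washed. Infected cells were treated with compounds at 0.1-10 μM for 72 h. Surviving intracellular amastigotes were quantified by firefly luciferase luminescence after cell lysis and 10 min substrate incubation at room temperature.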

| SMILES | CC50 [1] [µM] | IC50 [2] [µM] |
| --- | --- | --- |
| FC(F)(F)c1ccc(-c2ccc(-c3cc(C(F)(F)F)nn3-c3ccc(N4CCC(NC5CCCCCC5)C4)cc3)cc2)cc1 (stereo not shown) [Compound 69] | 12.4 | 5.5 |
| CC(C)(C)OC(=O)N1CCC(Oc2ccc(-n3nc(C(F)(F)F)cc3-c3ccc(-c4ccc(C(F)(F)F)cc4)cc3)cc2)C1 (stereo not shown) [Compound 142] | > 50 | > 10 |
| NCC(=O)Nc1ccc(-n2cc(C(F)(F)F)nc2-c2ccc(Br)cc2)cc1 [Compound 195] | 38.6 | > 10 |
| Nc1ccc(-n2cc(C(F)(F)F)nc2-c2ccc(Br)cc2)cc1 [Compound 193] | > 50 | > 10 |
| CC(C)C#Cc1ccc(-c2cc(C(F)(F)F)nn2-c2ccc([N+](=O)[O-])cc2)cc1 [Compound 94] | 29 | > 10 |
| NCCCCN1CCC(Oc2ccc(-n3nc(C(F)(F)F)cc3C3CCCCC3)cc2)CC1 [Compound 424] | 6.5 | 2.4 |
| FC(F)(F)c1cc(C2CCCCC2)n(-c2ccc(NC3CCN(Cc4ccccc4)CC3)cc2)n1 [Compound 381] | 12.4 | 6.2 |
| FC(F)(F)c1cn(-c2ccc(NCC3CC3)cc2)c(-c2ccc(-c3ccccc3)cc2)n1 [Compound 116] | > 50 | 9.9 |
| COc1ccc(C(=O)N2CCC(Nc3ccc(-n4nc(C(F)(F)F)cc4-c4ccc(-c5ccc(C(F)(F)F)cc5)cc4)cc3)C2)cc1OC (stereo not shown) [Compound 70] | > 50 | > 10 |
| NCC(=O)Nc1ccc(-n2cnc3ccccc32)cc1 [Compound 150] | > 50 | > 10 |
| NC1CCN(c2ccc(-n3nncc3-c3ccc(C(F)(F)F)cc3)cc2)C1 (stereo not shown) [Compound 204] | 37.2 | > 10 |
| CC(C)(C)c1ccc(-c2nc(C(F)(F)F)cn2-c2ccc(N)cc2)cc1 [Compound 149] | 28.8 | 9.1 |
| CC(C)(C)OC(=O)NC1CCN(c2ccc(-n3nc(C(F)(F)F)cc3-c3ccc(-c4ccc(C(F)(F)F)cc4)cc3)cc2)C1 (stereo not shown) [Compound 140] | > 50 | > 10 |
| FC(F)(F)c1cc(C2CCCCC2)n(-c2ccc(Br)cc2)n1 [Compound 215] | > 50 | > 10 |
| FC(F)(F)c1ccc(-c2ccc(-c3cc(C(F)(F)F)nn3-c3ccc(N4CC(NCc5ccccc5)C4)cc3)cc2)cc1 [Compound 112] | 6.3 | > 10 |
| FC(F)(F)c1ccc(-c2nc(C(F)(F)F)cn2-c2ccc(NC3CCNC3)cc2)cc1 (stereo not shown) [Compound 296] | 12.9 | 3 |
| NC1CCN(c2ccc(-n3nc(C(F)(F)F)c4ccc(-c5ccc(C(F)(F)F)cc5)cc43)cc2)C1 (stereo not shown) [Compound 141] | 7.7 | 3.6 |
| CS(=O)(=O)c1ccc(-n2nc(C(F)(F)F)cc2-c2ccc(-c3ccc(C(F)(F)F)cc3)cc2)cc1 [Compound 179] | 45 | > 10 |
| FC(F)(F)c1ccc(-c2ccc(-c3cc(C(F)(F)F)nn3-c3ccc(NC4CCN(Cc5ccccc5)C4)cc3)cc2)cc1 (stereo not shown) [Compound 114] | 13.6 | > 10 |
| CC(C)(C)OC(=O)NC1CCN(c2ccc(-n3nc(C4CCCCC4)cc3C(F)(F)F)cc2)C1 (stereo not shown) [Compound 229] | 5 | 3.4 |

| SMILES | CC50 [1] [µM] | IC50 [2] [µM] |
| --- | --- | --- |
| FC(F)(F)c1cc(-c2ccco2)n(-c2ccc(NC3CCNC3)cc2)n1 (stereo not shown) [Compound 273] | 15.6 | 4.9 |
| FC(F)(F)c1cc(-c2ccc(Cl)cc2)n(-c2ccc(Br)cc2)n1 [Compound 194] | > 50 | > 10 |
| NS(=O)(=O)c1ccc(-n2nc(C(F)(F)F)cc2-c2ccc(-c3ccc(C(F)(F)F)cc3)cc2)cc1 [Compound 188] | 9 | 3.1 |
| N#Cc1ccc(-n2cc(C(F)(F)F)cc2-c2ccc(-c3ccc(C(F)(F)F)cc3)cc2)cc1 [Compound 205] | > 50 | > 10 |
| CS(=O)(=O)c1ccc(-n2nc(C(F)(F)F)cc2-c2ccc(-c3ccccc3)cc2)cc1 [Compound 174] | > 50 | > 10 |
| NCC(=O)Nc1ccc(-c2cc(C(F)(F)F)nn2-c2ccc(-c3ccc(C(F)(F)F)cc3)cc2)cc1 [Compound 155] | 6.1 | 4 |
| FC(F)(F)c1ccc(-c2ccc(-c3cc(C(F)(F)F)nn3-c3ccc(NC4CCN(Cc5ccccc5)CC4)cc3)cc2)cc1 [Compound 115] | 13.2 | 7.4 |
| O=C(O)c1ccc(-n2cc(C(F)(F)F)nc2-c2ccc(-c3ccc(C(F)(F)F)cc3)cc2)c(F)c1 [Compound 176] | > 50 | > 10 |
| FC(F)(F)c1cc(-c2ccc(-c3cccs3)cc2)n(-c2ccc(N3CCNCC3)cc2)n1 [Compound 209] | 10.2 | 3 |
| FC(F)(F)c1ccc(-c2ccc(-c3cc(C(F)(F)F)nn3-c3ccc(NC4CCNCC4)cc3)cc2)cc1 [Compound 65] | 4 | 2.3 |
| FC(F)(F)c1cc(C2CCCCC2)n(-c2ccc(NC3CCN(Cc4ccccc4)C3)cc2)n1 (stereo not shown) [Compound 356] | 15.5 | 2 |
| NC1CCN(c2ccc(-n3nc(C(F)(F)F)cc3-c3ccc(-c4ccc(C(F)(F)F)cc4)cc3)cc2)CC1 [Compound 73] | 4.8 | 2.7 |
| NCCCN1CCC(Oc2ccc(-n3nc(C(F)(F)F)cc3C3CCCCC3)cc2)CC1 [Compound 425] | 5.5 | 2.2 |
| CC(C)(C)OC(=O)NC(Cc1ccccc1)C(=O)Nc1ccc(-n2cc(C(F)(F)F)nc2-c2ccc(-c3ccc(C(F)(F)F)cc3)cc2)cc1 (stereo not shown) [Compound 78] | > 50 | > 10 |
| CC(=O)NCCCNC1CCN(c2ccc(-n3nc(C(F)(F)F)cc3C3CCCCC3)cc2)CC1 [Compound 421] | 19 | 1.5 |
| FC(F)(F)c1ccc(-c2ccc(-c3cc(C(F)(F)F)nn3-c3ccc(NCCCCOc4ccccc4)cc3)cc2)cc1 [Compound 68] | 34.7 | > 10 |
| FC(F)(F)c1cc(-c2ccc(C3CC3)cc2)n(-c2ccc(N3CCNCC3)cc2)n1 [Compound 211] | 13.2 | 2.1 |
| Nc1ccc(-n2cc(C(F)(F)F)nc2-c2ccc(-c3ccc(C(F)(F)F)cc3)cc2)cc1 [Compound 156] | 20.8 | 5.8 |
| NCC(=O)Nc1ccc(-n2cc(C(F)(F)F)nc2-c2ccc(-c3ccc(C(F)(F)F)cc3)cc2)cc1 [Compound 79] | 6.3 | 7.1 |
| CC(C)C#Cc1ccc(-c2cc(C(F)(F)F)nn2-c2ccc(N3CCNCC3)cc2)cc1 [Compound 45] | 3.2 | 3.7 |

| SMILES | CC50 [1] [µM] | IC50 [2] [µM] |
| --- | --- | --- |
| NC1CCN(c2ccc(-n3nc(C(F)(F)F)cc3-c3ccc(-c4ccc(S(F)(F)(F)(F)F)cc4)cc3)cc2)C1 (stereo not shown) [Compound 106] | 6 | 8.1 |
| NCCOCCN1CCC(Oc2ccc(-n3nc(C(F)(F)F)cc3C3CCCCC3)cc2)CC1 [Compound 423] | 3.4 | 6 |
| CCCNC1CN(c2ccc(-n3nc(C(F)(F)F)cc3-c3ccc(-c4ccc(C(F)(F)F)cc4)cc3)cc2)C1 [Compound 54] | 9.9 | 2.4 |
| O=[N+]([O-])c1ccc(-n2cnc3cc(Br)ccc32)cc1 [Compound 139] | > 50 | > 10 |
| NC(Cc1ccccc1)C(=O)N1CCC(Nc2ccc(-n3nc(C(F)(F)F)cc3-c3ccc(-c4ccc(C(F)(F)F)cc4)cc3)cc2)C1 (stereo not shown) [Compound 61] | 6.1 | 2.3 |
| CC(C)C#Cc1ccc(-c2cc(C(F)(F)F)nn2-c2ccc(N)cc2)cc1 [Compound 95] | > 50 | > 10 |
| FC(F)(F)c1ccc(-c2ccc(-c3nc(C(F)(F)F)cn3-c3ccc(N4CCNCC4)cc3)cc2)cc1 [Compound 74] | 6.5 | 2.8 |
| O=[N+]([O-])c1ccc(-c2cc(C(F)(F)F)nn2-c2ccc(Br)cc2)cc1 [Compound 143] | > 50 | > 10 |
| FC(F)(F)c1cc(-c2cccnc2)n(-c2ccc(NC3CCNC3)cc2)n1 (stereo not shown) [Compound 250] | > 50 | > 10 |
| Fc1cccc(CN2CCC(Nc3ccc(-n4nc(C(F)(F)F)cc4C4CCCCC4)cc3)C2)c1 (stereo not shown) [Compound 357] | 13.1 | 1.2 |
| FC(F)(F)c1cn(-c2ccc(NCc3ccccc3)cc2)c(-c2ccc(-c3ccccc3)cc2)n1 [Compound 87] | > 50 | 6.7 |
| NC(Cc1ccccc1)C(=O)Nc1ccc(-n2cc(C(F)(F)F)nc2-c2ccc(-c3ccc(C(F)(F)F)cc3)cc2)cc1 (stereo not shown) [Compound 80] | 8.2 | 3 |
| FC(F)(F)c1cn(-c2ccc(OC3CCNC3)cc2)c(-c2ccc(-c3ccccc3)cc2)n1 (stereo not shown) [Compound 328] | 11.1 | 2.6 |
| FC(F)(F)c1ccc(-c2ccc3nc[nH]c3c2)cc1 [Compound 135] | > 50 | > 10 |
| FC(F)(F)c1cc(-c2ccc(-c3ccsc3)cc2)n(-c2ccc(N3CCNCC3)cc2)n1 [Compound 210] | 10.5 | 2.5 |
| FC(F)(F)c1cc(-c2ccc(C#CC3CC3)cc2)n(-c2ccc(N3CCNCC3)cc2)n1 [Compound 42] | 0.7 | 4.2 |
| CC(C)(C)OC(=O)NC1CCN(c2ccc(-n3nc(C(F)(F)F)cc3-c3ccc(-c4ccc(C(F)(F)F)cc4)cc3)cc2)C1 (stereo not shown) [Compound 128] | > 50 | > 10 |
| Fc1cccc(CN2CCC(Nc3ccc(-n4cc(C(F)(F)F)nc4-c4ccc(-c5ccc(C(F)(F)F)cc5)cc4)cc3)C2)c1 (stereo not shown) [Compound 243] | > 50 | > 10 |
| O=C(CNCc1ccc(O)cc1)Nc1ccc(-n2nc(C(F)(F)F)cc2C2CCCCC2)cc1 [Compound 355] | 21.2 | 2 |
